According to US9828369B2, “Isoquinoline derivatives useful as inhibitors of diacylglyceride O-acyltransferase 2” (Merck Sharp & Dohme Corp., priority 2014, dated 2017):

Target: hDGAT2 (Homo sapiens (Human), UniProt Q96PD7)
Assay: DGAT2 enzymatic activity assay (triolein formation, LC/MS/MS)
Conditions: not given

hDGAT2, sequence (Q96PD7 whole entry): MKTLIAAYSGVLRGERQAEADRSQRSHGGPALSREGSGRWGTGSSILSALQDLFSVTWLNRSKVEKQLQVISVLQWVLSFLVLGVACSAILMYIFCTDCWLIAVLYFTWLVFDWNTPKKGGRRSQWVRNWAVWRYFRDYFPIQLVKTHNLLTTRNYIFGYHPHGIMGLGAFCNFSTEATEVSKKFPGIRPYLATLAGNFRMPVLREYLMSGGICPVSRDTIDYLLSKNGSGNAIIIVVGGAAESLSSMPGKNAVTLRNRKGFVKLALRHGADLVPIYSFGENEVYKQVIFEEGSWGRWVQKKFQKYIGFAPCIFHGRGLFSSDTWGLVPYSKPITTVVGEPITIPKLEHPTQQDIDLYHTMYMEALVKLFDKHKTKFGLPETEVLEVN

| IC50 [µM] | SMILES |
| --- | --- |
| 3.55 | COc1cccc(-c2ccc(CNC(=O)[C@@H]3COC(c4ccccc4)=N3)c3cnccc23)c1 (racemic) [Example 42, (R/S)-N-((5-(3-methoxyphenyl)isoquinolin-8-yl)methyl)-2-phenyl-4,5-dihydrooxazole-4-carboxamide] |
| 2 | COc1cccc(-c2ccc(CNC(=O)c3ccc(-n4cccn4)cc3)c3cnccc23)c1 [Example 65, N-((5-(3-methoxyphenyl)isoquinolin-8-yl)methyl)-4-(1H-pyrazol-1-yl)benzamide] |

Same assay, conditions: read-out: IC50 values for inhibition of DGAT2; membrane prep of Sf-9 cells expressing hDGAT2; 25 μM diolein, 10 μM oleoyl-CoA; room temperature; triolein by LC/MS/MS

| IC50 [µM] | SMILES |
| --- | --- |
| 0.902 | COc1cccc(-c2ccc(CNC(=O)c3ccccc3-n3cnnn3)c3cnccc23)c1 [Example 90, N-((5-(3-methoxyphenyl)isoquinolin-8-yl)methyl)-2-(1H-tetrazol-1-yl)benzamide] |
| 0.988 | COc1cccc(-c2ccc(CNC(=O)c3ccc(N4CCCCC4)cc3)c3cnccc23)c1 [Example 84, N-((5-(3-methoxyphenyl)isoquinolin-8-yl)methyl)-4-(piperidin-1-yl)benzamide] |
| 1.76 | COc1cccc(-c2ccc(CNC(=O)c3cccc4cnccc34)c3cnccc23)c1 [Example 92, N-((5-(3-methoxyphenyl)isoquinolin-8-yl)methyl)isoquinoline-5-carboxamide] |
| 0.198 | COc1cc(OC)cc(-c2ccc(CNC(=O)Nc3cccc(Cl)c3Cl)c3cnccc23)c1 [Example 152, 1-(2,3-dichlorophenyl)-3-((5-(3,5-dimethoxyphenyl)isoquinolin-8-yl)methyl)urea] |
| 8 | COc1cccc(-c2ccc(CNC(=O)C3CCC(c4ccccc4)=N3)c3cnccc23)c1 (stereo not shown) [Example 96, N-((5-(3-methoxyphenyl)isoquinolin-8-yl)methyl)-5-phenyl-3,4-dihydro-2H-pyrrole-2-carboxamide] |
| 0.883 | COc1cccc(-c2ccc(CNC(=O)Cc3cccc(Cl)c3Cl)c3cnccc23)c1 [Example 31, 2-(2,3-dichlorophenyl)-N-((5-(3-methoxyphenyl)isoquinolin-8-yl)methyl)acetamide] |
| 1.45 | COc1cccc(-c2ccc(CNC(=O)c3ccc(-c4ccccc4)o3)c3cnccc23)c1 [Example 83, N-((5-(3-methoxyphenyl)isoquinolin-8-yl)methyl)-5-phenylfuran-2-carboxamide] |
| 0.213 | COc1cccc(-c2ccc(CNC(=O)C(C)c3ccccc3F)c3cnccc23)c1 (stereo not shown) [Example 139, 2-(2-fluorophenyl)-N-((5-(3-methoxyphenyl)isoquinolin-8-yl)methyl)propanamide] |
| 7.36 | COc1cccc(-c2ccc(CNC(=O)c3cccc(-n4cccn4)c3)c3cnccc23)c1 [Example 34, N-((5-(3-methoxyphenyl)isoquinolin-8-yl)methyl)-3-(1H-pyrazol-1-yl)benzamide] |
| 0.178 | COc1cccc(-c2ccc(CNC(=O)C3CC3c3ccc(F)cc3)c3cnccc23)c1 (stereo not shown) [Example 102, 2-(4-fluorophenyl)-N-((5-(3-methoxyphenyl)isoquinolin-8-yl)methyl)cyclopropanecarboxamide] |
| 0.101 | COC(=O)c1cccc(-c2ccc(CNC(=O)Cc3ccc(Oc4ccccc4)cc3)c3cnccc23)c1 [Example 6, methyl 3-(8-((2-(4-phenoxyphenyl)acetamido)methyl)isoquinolin-5-yl)benzoate] |
| 6.67 | COc1cccc(-c2ccc(CNC(=O)CN3CCN(c4ccccc4)CC3)c3cnccc23)c1 [Example 93, N-((5-(3-methoxyphenyl)isoquinolin-8-yl)methyl)-2-(4-phenylpiperazin-1-yl)acetamide] |
| 7.29 | COc1cccc(-c2ccc(CNC(=O)Cc3ccc(F)c(F)c3F)c3cnccc23)c1 [Example 58, N-((5-(3-methoxyphenyl)isoquinolin-8-yl)methyl)-2-(2,3,4-trifluorophenyl)acetamide] |
| 0.278 | COCc1cccc(-c2ccc(CNC(=O)C3CC3c3ccccc3)c3cnccc23)c1 (stereo not shown) [Example 18, N-((5-(3-(methoxymethyl)phenyl)isoquinolin-8-yl)methyl)-2-phenylcyclopropanecarboxamide] |
| 0.243 | COc1cccc(-c2ccc(CNC(=O)C3CC34CCCCC4)c3cnccc23)c1 (stereo not shown) [Example 100, N-((5-(3-methoxyphenyl)isoquinolin-8-yl)methyl)spiro[2.5]octane-1-carboxamide] |
| 1.18 | COc1cccc(-c2ccc(CNC(=O)c3cc(Br)cnc3C(F)(F)F)c3cnccc23)c1 [Example 121, 5-bromo-N-((5-(3-methoxyphenyl)isoquinolin-8-yl)methyl)-2-(trifluoromethyl)nicotinamide] |
| 4.45 | COc1cccc(-c2ccc(CNC(=O)Cc3ccc(OC(F)(F)F)cc3)c3cnccc23)c1 [Example 57, N-((5-(3-methoxyphenyl)isoquinolin-8-yl)methyl)-2-(4-(trifluoromethoxy)phenyl)acetamide] |
| 2.99 | COc1cccc(-c2ccc(CNC(=O)c3cncc(-c4ccccc4)c3)c3cnccc23)c1 [Example 129, N-((5-(3-methoxyphenyl)isoquinolin-8-yl)methyl)-5-phenylnicotinamide] |
| 1.95 | COc1cccc(-c2ccc(CNC(=O)c3ccc(N4CCCC4=O)cc3)c3cnccc23)c1 [Example 67, N-((5-(3-methoxyphenyl)isoquinolin-8-yl)methyl)-4-(2-oxopyrrolidin-1-yl)benzamide] |

| IC50 [µM] | SMILES |
| --- | --- |
| 1.86 | CC(C)OC(=O)c1cccc(-c2ccc(CNC(=O)C3CC3c3ccccc3)c3cnccc23)c1 (stereo not shown) [Example 20, isopropyl 3-(8-((2-phenylcyclopropanecarboxamido)methyl)isoquinolin-5-yl)benzoate] |
| 3.05 | COc1cccc(-c2ccc(CNC(=O)Cc3ccc4c(c3)OCCO4)c3cnccc23)c1 [Example 63, 2-(2,3-dihydrobenzo[b][1,4]dioxin-6-yl)-N-((5-(3-methoxyphenyl)isoquinolin-8-yl)methyl)acetamide] |
| 0.0856 | COC(=O)c1cccc(-c2ccc(CNC(=O)Cc3ccc(C(F)(F)F)cc3)c3cnccc23)c1 [Example 2, methyl 3-(8-((2-(4-(trifluoromethyl)phenyl)acetamido)methyl)isoquinolin-5-yl)benzoate] |
| 5.89 | COc1cccc(-c2ccc(CNC(=O)c3cncc(C(F)(F)F)c3)c3cnccc23)c1 [Example 119, N-((5-(3-methoxyphenyl)isoquinolin-8-yl)methyl)-5-(trifluoromethyl)nicotinamide] |
| 0.889 | COc1cccc(-c2ccc(CNC(=O)c3cccc(-n4cnnn4)c3)c3cnccc23)c1 [Example 91, N-((5-(3-methoxyphenyl)isoquinolin-8-yl)methyl)-3-(1H-tetrazol-1-yl)benzamide] |
| 7.07 | COc1cccc(-c2ccc(CNC(=O)Nc3ccccc3-c3ccccc3)c3cnccc23)c1 [Example 169, 1-([1,1′-biphenyl]-2-yl)-3-((5-(3-methoxyphenyl)isoquinolin-8-yl)methyl)urea] |
| 3.39 | COc1cccc(-c2ccc(CNC(=O)c3cnn(Cc4ccccc4)c3)c3cnccc23)c1 [Example 115, 1-benzyl-N-((5-(3-methoxyphenyl)isoquinolin-8-yl)methyl)-1H-pyrazole-4-carboxamide] |
| 0.298 | COc1cccc(-c2ccc(CNC(=O)C(C)c3ccccc3)c3cnccc23)c1 (stereo not shown) [Example 138, N-((5-(3-methoxyphenyl)isoquinolin-8-yl)methyl)-2-phenylpropanamide] |
| 0.938 | COc1cccc(-c2ccc(CNC(=O)Nc3ccc(OC(F)(F)F)cc3)c3cnccc23)c1 [Example 151, 1-((5-(3-methoxyphenyl)isoquinolin-8-yl)methyl)-3-(4-(trifluoromethoxy)phenyl)urea] |
| 0.291 | COc1cccc(-c2ccc(CNC(=O)Cc3cccc(C(F)(F)F)c3)c3cnccc23)c1 [Example 48, N-((5-(3-methoxyphenyl)isoquinolin-8-yl)methyl)-2-(3-(trifluoromethyl)phenyl)acetamide] |
| 1.31 | COc1cccc(-c2ccc(CNC(=O)CC3(c4ccccc4)CCN(C(=O)OC(C)(C)C)C3)c3cnccc23)c1 (stereo not shown) [Example 95, tert-butyl 3-(2-(((5-(3-methoxyphenyl)isoquinolin-8-yl)methyl)amino)-2-oxoethyl)-3-phenylpyrrolidine-1-carboxylate] |
| 0.374 | C=C(c1ccccc1)c1ccc(CNC(=O)Nc2cccc(Cl)c2Cl)c2cnccc12 [Example 158, 1-(2,3-dichlorophenyl)-3-((5-(1-phenylyinyl)isoquinolin-8-yl)methyl)urea] |
| 2.41 | COc1cccc(-c2ccc(CNC(=O)c3cc(-c4ccccc4)no3)c3cnccc23)c1 [Example 80, N-((5-(3-methoxyphenyl)isoquinolin-8-yl)methyl)-3-phenylisoxazole-5-carboxamide] |
| 7.45 | COc1cccc(-c2ccc(CNC(=O)C3CC3c3ccccn3)c3cnccc23)c1 (stereo not shown) [Example 105, N-((5-(3-methoxyphenyl)isoquinolin-8-yl)methyl)-2-(pyridin-2-yl)cyclopropanecarboxamide] |
| 0.571 | COc1cccc(-c2ccc(CNC(=O)c3ccnc(C(F)(F)F)c3)c3cnccc23)c1 [Example 133, N-((5-(3-methoxyphenyl)isoquinolin-8-yl)methyl)-2-(trifluoromethyl)isonicotinamide] |
| 2.76 | COc1cccc(-c2ccc(CNC(=O)Cc3cccc(Cl)c3)c3cnccc23)c1 [Example 54, 2-(3-chlorophenyl)-N-((5-(3-methoxyphenyl)isoquinolin-8-yl)methyl)acetamide] |
| 0.915 | COc1cccc(-c2ccc(CNC(=O)C3CC3c3ccccc3Br)c3cnccc23)c1 (stereo not shown) [Example 101, 2-(2-bromophenyl)-N-((5-(3-methoxyphenyl)isoquinolin-8-yl)methyl)cyclopropanecarboxamide] |
| 0.123 | COC(=O)c1cccc(-c2ccc(CNC(=O)c3cnn(-c4ccccc4)c3C(F)(F)F)c3cnccc23)c1 [Example 8, methyl 3-(8-((1-phenyl-5-(trifluoromethyl)-1H-pyrazole-4-carboxamido)methyl)isoquinolin-5-yl)benzoate] |
| 0.317 | COc1cccc(-c2ccc(CNC(=O)Cc3ccc(C(F)(F)F)cc3)c3cnccc23)c1 [Example 46, N-((5-(3-methoxyphenyl)isoquinolin-8-yl)methyl)-2-(4-(trifluoromethyl)phenyl)acetamide] |
